Reference: patent publication US20100028419A1, “MEMBRANE(S) AND USES THEREOF” (priority 2007, published 2010)

Assays:
amoeba Chaos cells = assay: Continuous addition of DPA (C22:5) into amoeba culture medium, TEM study; format: cell-based, Chaos carolinense; settings: 0.1 mM final concentration, fed Chaos cells with Paramecium present, 3 additions on alternate days, fixed at day 5
Experimental: All-cis-4,7,10,13,16 Docosapentaneoic Acid (DPA, C22:5n-6) (Sigma) and Cis-7,10,13,16,19 DPA (C22:5n-3) (Sigma) were dissolved in Diethyl Ether and added to the amoeba culture media at a final concentration of 0.1 mM. DPA (n-3) and DPA (n-6) were added separately after amoeba washing and in the presence of the food organisms (Paramecium multimicronucleatum). The procedure was performed every alternative day for a total of 3 times according to the regular feeding schedule. At day 5 post-DPA treatment Chaos cells were fixed in 2.5% glutaraldehyde for TEM processing according to the procedure described in Example 6.

MCF-7 cells = assay: In vitro transfection: uptake of fragmented ODN-cubic membrane complexes, fluorescence microscopy and TEM; format: cell-based, human; settings: 5 h
Experimental: Isolated mitochondria pellets (from fed, 10 days starved Chaos cells and mice liver) from Example 1 and transfected MCF-7 cell pellet prepared according to Example 4 were studied by the conventional TEM technique. Samples in the pellet forms were first fixed individually with 2.5% glutaraldehyde in 1×PBS at 4° C. After washing 4 times with 1×PBS buffer over 1 h to remove glutaraldehyde, the samples were post-fixed with 1% osmium tetroxide in 1× PBS buffer (pH 7.4) for 20 min at room temperature. The specimens were then washed 4 times with the 1×PBS buffer at 4° C. Thereafter 3% gelatin in PBS was added for 30 min before spinning down to collect the pellets at 2,500 rpm for 5 min. The specimens were stored at 4° C. overnight and the steps of adding 2.5% glutaraldehyde in PBS and washing with PBS were repeated for another cycle. The bigger specimens were trimmed into small cubes (1 mm in length) and washed with distilled water for 5 min. Dehydration through ethanol series was done using ethanol of 25%, 50%, 75%, 95% and 100% for 10 min each at room temperature. The specimens were then infiltrated with 100% acetone: resin in 1:1 ratio for 30 min at room temperature and with 100% acetone: resin in 1:6 ratio overnight. […]
There were three negative controls. […] The remaining cells were viewed 5 h post-transfection under the fluorescence microscope for the uptake of tagged-ODNs.

Row | Compound | inner mitochondrial membrane transformation to cubic organization (TEM) (amoeba Chaos cells) | inclusion bodies in cells (TEM) (MCF-7 cells)
1 | CCCCC/C=C\C/C=C\C/C=C\C/C=C\C/C=C\CCC(=O)O [DPA (n-6), All-cis-4,7,10,13,16 Docosapentaneoic Acid] | enhanced their inner mitochondrial membrane transformation from random tubular (A) to cubic organization (D) | –
2 | 5′ tct ccc agc gtg cgc cat 3′ (DNA TCTCCCAGCGTGCGCCAT; chemistry not given here) [naked ODNs] | – | no inclusion bodies observed
3 | CC/C=C\C/C=C\C/C=C\C/C=C\C/C=C\CCCCCC(=O)O [DPA (n-3), Cis-7,10,13,16,19 DPA] | did not have the same drastic effects on the inner mitochondrial membrane organization | –
